Reference: patent US20230233569A1 (Revolution Medicines, Inc., priority 2020, published 2023)
pIC50: −log10 of the molar value. Read-outs that look alike come from different tables or passages of the source.

How the values were obtained:
Assay in all cases: Ras-Raf disruption / FRET / MOA assay (BRAF RBD)
Type in all cases: biochemical
KRAS G12D = KRAS G12D (Homo sapiens, UniProt P01116+P62937, G12D); conditions: with Cyclophilin A
From the text: (§1) Disruption of […] Ras-binding Domain (BRAF^RBD) Interaction with K-Ras by Compounds of the Invention (also Called a FRET Assay or an MOA Assay)
(§2) Note—The following protocol describes a procedure for monitoring disruption of K-Ras G12C (GMP-PNP) binding to BRAF^RBD by a compound of the invention. This protocol may also be executed substituting other Ras proteins or nucleotides, such as K-Ras G12D and K-Ras G13D.
(§3) The purpose of this biochemical assay was to measure the ability of test compounds to facilitate ternary complex formation between a nucleotide-loaded K-Ras isoform and Cyclophilin A; the resulting ternary complex disrupts binding to a BRAF^RBD construct, inhibiting K-Ras signaling through a RAF effector. Data is reported as IC50 values.
(§4) In assay buffer containing 25 mM HEPES pH 7.3, 0.002% Tween20, 0.1% BSA, 100 mM NaCl and 5 mM MgCl2, tagless Cyclophilin A, His6-K-Ras-GMPPNP, and GST-BRAF^RBD were combined in a 384-well assay plate at final concentrations of 25 μM, 12.5 nM, and 50 nM, respectively. Compound was present in plate wells as a 10-point 3-fold dilution series starting at a final concentration of 30 μM. After incubation at 25° C. for 3 hours, a mixture of anti-His Eu-W1024 and anti-GST allophycocyanin was then added to assay sample wells at final concentrations of 10 nM and 50 nM, respectively, and the reaction incubated for an additional 1.5 hours. […] Compounds that facilitate disruption of a K-Ras:RAF complex were identified as those eliciting a decrease in the TR-FRET ratio relative to DMSO control wells.

KRAS G12S = KRAS G12S (Homo sapiens, UniProt P01116+P62937, G12S); conditions: with Cyclophilin A
From the text: as §1, §2, §3, §4

KRAS G12V = KRAS G12V (Homo sapiens, UniProt P01116+P62937, G12V); conditions: with Cyclophilin A
From the text: as §1, §2, §3, §4

KRAS G13C = KRAS G13C (Homo sapiens, UniProt P01116+P62937, G13C); conditions: with Cyclophilin A
From the text: as §1, §2, §3, §4

KRAS G13D = KRAS G13D (Homo sapiens, UniProt P01116+P62937, G13D); conditions: with Cyclophilin A
From the text: as §1, §2, §3, §4

KRAS WT = KRAS WT (Homo sapiens, UniProt P01116+P62937); conditions: with Cyclophilin A
From the text: as §1, §2, §3, §4

NRAS G12C = NRAS G12C (Homo sapiens, UniProt P01111+P62937, G12C)
From the text: as §1, §2, §3, §4

KRAS G12C = KRAS G12C (Homo sapiens, UniProt P01116+P62937, G12C); conditions: with Cyclophilin A
From the text: as §1, §2, §3, §4
The purpose of this biochemical assay is to measure the ability of test compounds to facilitate ternary complex formation between a nucleotide-loaded Ras isoform and cyclophilin A; the resulting ternary complex disrupts binding to a BRAF^RBD construct, inhibiting Ras signaling through a RAF effector.
In assay buffer containing 25 mM HEPES pH 7.3, 0.002% Tween20, 0.1% BSA, 100 mM NaCl and 5 mM MgCl2, tagless Cyclophilin A, His6-K-Ras-GMPPNP (or other Ras variant), and GST-BRAF^RBD are combined in a 384-well assay plate at final concentrations of 25 μM, 12.5 nM and 50 nM, respectively. Compound is present in plate wells as a 10-point 3-fold dilution series starting at a final concentration of 30 μM. After incubation at 25° C. for 3 hours, a mixture of Anti-His Eu-W1024 and anti-GST allophycocyanin is then added to assay sample wells at final concentrations of 10 nM and 50 nM, respectively, and the reaction incubated for an additional 1.5 hours. […] Compounds that facilitate disruption of a Ras:RAF complex are identified as those eliciting a decrease in the TR-FRET ratio relative to DMSO control wells.

[1] = Ras-Raf disruption, read-out: KRAS G12D FRET data IC50
[2] = Ras-Raf disruption, read-out: KRAS G12S FRET data IC50
[3] = Ras-Raf disruption, read-out: KRAS G12V FRET data IC50
[4] = Ras-Raf disruption, read-out: KRAS G13C FRET data IC50
[5] = Ras-Raf disruption, read-out: KRAS G13D FRET data IC50
[6] = Ras-Raf disruption, read-out: KRAS WT FRET data IC50
[7] = NRAS G12C, read-out: NRAS G12C FRET data IC50
[8] = Ras-Raf disruption, read-out: KRAS G12C FRET data IC50

NRAS G12C, sequence (P01111 whole entry G12C): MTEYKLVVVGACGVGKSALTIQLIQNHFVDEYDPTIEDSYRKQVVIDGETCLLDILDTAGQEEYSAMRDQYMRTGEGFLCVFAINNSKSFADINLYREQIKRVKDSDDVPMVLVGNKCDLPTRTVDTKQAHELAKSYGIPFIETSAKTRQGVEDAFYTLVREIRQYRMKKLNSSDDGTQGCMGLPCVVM
NRAS G12C, sequence (P62937 whole entry): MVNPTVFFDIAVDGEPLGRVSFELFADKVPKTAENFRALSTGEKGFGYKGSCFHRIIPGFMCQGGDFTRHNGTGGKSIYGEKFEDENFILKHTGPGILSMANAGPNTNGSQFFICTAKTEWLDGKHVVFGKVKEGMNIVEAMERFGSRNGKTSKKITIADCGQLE
KRAS G13D, sequence (P01116 1-169 isoform P01116-2 G13D limits assumed): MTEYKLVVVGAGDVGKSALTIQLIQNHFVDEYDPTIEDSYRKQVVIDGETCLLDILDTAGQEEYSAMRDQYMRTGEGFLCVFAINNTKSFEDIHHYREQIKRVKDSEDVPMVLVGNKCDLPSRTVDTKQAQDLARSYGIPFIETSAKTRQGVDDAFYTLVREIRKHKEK
KRAS G13D, sequence (P62937 whole entry): as the sequence (P62937 whole entry) above
KRAS G12S, sequence (P01116 1-169 isoform P01116-2 G12S limits assumed): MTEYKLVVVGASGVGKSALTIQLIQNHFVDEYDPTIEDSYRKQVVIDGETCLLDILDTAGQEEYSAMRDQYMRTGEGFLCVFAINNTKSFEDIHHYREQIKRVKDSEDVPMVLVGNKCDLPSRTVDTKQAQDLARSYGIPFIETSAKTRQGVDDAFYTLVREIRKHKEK
KRAS G12S, sequence (P62937 whole entry): as the sequence (P62937 whole entry) above
KRAS G13C, sequence (P01116 1-169 isoform P01116-2 G13C limits assumed): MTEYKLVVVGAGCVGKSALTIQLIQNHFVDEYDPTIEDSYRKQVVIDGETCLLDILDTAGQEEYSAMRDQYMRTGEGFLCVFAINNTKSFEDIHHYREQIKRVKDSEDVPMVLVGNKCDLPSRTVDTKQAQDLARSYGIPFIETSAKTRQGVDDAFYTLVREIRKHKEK
KRAS G13C, sequence (P62937 whole entry): as the sequence (P62937 whole entry) above
KRAS G12C, sequence (P01116 1-169 isoform P01116-2 G12C limits assumed): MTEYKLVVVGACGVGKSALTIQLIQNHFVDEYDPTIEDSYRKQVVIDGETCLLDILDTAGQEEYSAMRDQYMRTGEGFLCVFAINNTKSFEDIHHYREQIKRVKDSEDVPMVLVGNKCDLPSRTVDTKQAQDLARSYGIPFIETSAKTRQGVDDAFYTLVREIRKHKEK
KRAS G12C, sequence (P62937 whole entry): as the sequence (P62937 whole entry) above
KRAS WT, sequence (P01116 1-169 isoform P01116-2 limits assumed): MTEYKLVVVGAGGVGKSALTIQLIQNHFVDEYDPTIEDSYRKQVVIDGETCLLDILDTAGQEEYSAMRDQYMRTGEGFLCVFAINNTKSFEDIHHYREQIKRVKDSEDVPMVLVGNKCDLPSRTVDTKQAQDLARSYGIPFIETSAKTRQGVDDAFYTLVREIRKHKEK
KRAS WT, sequence (P62937 whole entry): as the sequence (P62937 whole entry) above
KRAS G12D, sequence (P01116 1-169 isoform P01116-2 G12D limits assumed): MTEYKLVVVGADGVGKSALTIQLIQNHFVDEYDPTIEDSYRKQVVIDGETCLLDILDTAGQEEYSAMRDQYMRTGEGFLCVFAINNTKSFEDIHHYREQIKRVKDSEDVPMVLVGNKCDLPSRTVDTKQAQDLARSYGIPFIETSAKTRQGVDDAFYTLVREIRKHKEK
KRAS G12D, sequence (P62937 whole entry, the tested form may be a part): as the sequence (P62937 whole entry) above
KRAS G12V, sequence (P01116 1-169 isoform P01116-2 G12V limits assumed): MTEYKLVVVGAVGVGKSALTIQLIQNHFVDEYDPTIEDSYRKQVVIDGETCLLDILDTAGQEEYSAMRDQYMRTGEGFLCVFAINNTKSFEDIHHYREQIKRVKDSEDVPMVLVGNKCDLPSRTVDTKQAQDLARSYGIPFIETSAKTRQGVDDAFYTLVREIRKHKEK
KRAS G12V, sequence (P62937 whole entry): as the sequence (P62937 whole entry) above

Structure (SMILES) | pIC50 (KRAS G12D; KRAS G12D FRET data IC50, Ras-Raf disruption) | pIC50 (KRAS G12S; KRAS G12S FRET data IC50, Ras-Raf disruption) | pIC50 (KRAS G12V; KRAS G12V FRET data IC50, Ras-Raf disruption) | pIC50 (KRAS G13C; KRAS G13C FRET data IC50, Ras-Raf disruption) | pIC50 (KRAS G13D; KRAS G13D FRET data IC50, Ras-Raf disruption) | pIC50 (KRAS WT; KRAS WT FRET data IC50, Ras-Raf disruption) | pIC50 (NRAS G12C; NRAS G12C FRET data IC50, NRAS G12C) | pIC50 (KRAS G12C; KRAS G12C FRET data IC50, Ras-Raf disruption) | pIC50 (KRAS G12D; [1]) | pIC50 (KRAS G12S; [2]) | pIC50 (KRAS G12V; [3]) | pIC50 (KRAS G13C; [4]) | pIC50 (KRAS G13D; [5]) | pIC50 (KRAS WT; [6]) | pIC50 (NRAS G12C; [7]) | pIC50 (KRAS G12C; [8])
CCn1c(-c2cccnc2[C@H](C)OC)c2c3cc(ccc31)-c1cc(O)cc(c1)C[C@H](NC(=O)[C@H](C(C)C)N(C)C(=O)CN(C)C(=O)[C@H]1CN1)C(=O)N1CCC[C@H](N1)C(=O)OCC(C)(C)C2 (single isomer, unassigned) [Example 42B] | 5.00 to 6.00 | 5.00 to 6.00 | 5.00 to 6.00 | 6.00 to 7.00 | 5.00 to 6.00 | 5.00 to 6.00 | 6.00 to 7.00 | 6.00 to 7.00 |  |  |  |  |  |  |  | 
CCn1c(-c2cccnc2[C@H](C)OC)c2c3cc(ccc31)-c1cc(O)cc(c1)C[C@H](NC(=O)[C@H](C(C)C)N(C)C(=O)[C@H]1CCN(C(=O)[C@H]3CN3)C1)C(=O)N1CCC[C@H](N1)C(=O)OCC(C)(C)C2 (single isomer, unassigned) [Example 43A] |  |  |  |  |  |  |  |  | 7.00 to 8.00 | 7.00 to 8.00 | 7.00 to 8.00 | 7.00 to 8.00 | 7.00 to 8.00 | 7.00 to 8.00 | > 8.00 | > 8.00
CCn1c(-c2cccnc2[C@H](C)OC)c2c3cc(ccc31)-c1cc(O)cc(c1)C[C@H](NC(=O)[C@H](C(C)C)N(C)C(=O)[C@H]1CCN(S(=O)(=O)[C@@H]3CN3C)C1)C(=O)N1CCC[C@H](N1)C(=O)OCC(C)(C)C2 (single isomer, unassigned) [Example 56] |  |  |  |  |  |  |  |  | 6.00 to 7.00 | 6.00 to 7.00 | 6.00 to 7.00 | 7.00 to 8.00 | 6.00 to 7.00 | 6.00 to 7.00 | 6.00 to 7.00 | 7.00 to 8.00
CCn1c(-c2cccnc2[C@H](C)OC)c2c3cc(ccc31)-c1cc(O)cc(c1)C[C@H](NC(=O)[C@H](C(C)C)N(C)C(=O)[C@H]1CCN(S(=O)(=O)[C@H]3CN3C)C1)C(=O)N1CCC[C@H](N1)C(=O)OCC(C)(C)C2 (single isomer, unassigned) [Example 57] |  |  |  |  |  |  |  |  | 5.00 to 6.00 | 6.00 to 7.00 | 6.00 to 7.00 | 7.00 to 8.00 | 6.00 to 7.00 | 6.00 to 7.00 | 6.00 to 7.00 | 6.00 to 7.00
CCn1c(-c2cccnc2[C@H](C)OC)c2c3cc(ccc31)-c1cc(O)cc(c1)C[C@H](NC(=O)[C@H](C(C)C)N(C)C(=O)C1CN(S(=O)(=O)[C@@H]3CN3C)C1)C(=O)N1CCC[C@H](N1)C(=O)OCC(C)(C)C2 (single isomer, unassigned) [Example 118] |  |  |  |  |  |  |  |  | 5.00 to 6.00 | 6.00 to 7.00 | 6.00 to 7.00 | 7.00 to 8.00 | 6.00 to 7.00 | 6.00 to 7.00 | 6.00 to 7.00 | 6.00 to 7.00
CCn1c(-c2cnccc2COC)c2c3cc(ccc31)-c1cccc(c1)C[C@H](NC(=O)[C@H](C(C)C)N(C)C(=O)CCN=C=NCCOC)C(=O)N1CCC[C@H](N1)C(=O)OCC(C)(C)C2 [23 A and B] |  |  |  |  |  |  |  |  | 5.00 to 6.00 | 5.00 to 6.00 | < 5.00 | 5.00 to 6.00 | < 5.00 | 5.00 to 6.00 | 7.00 to 8.00 | 7.00 to 8.00
CCn1c(-c2cnccc2COC)c2c3cc(ccc31)-c1cccc(c1)C[C@H](NC(=O)[C@H](C(C)C)N(C)C(=O)CCN=C=NCc1c(OC)cccc1OC)C(=O)N1CCC[C@H](N1)C(=O)OCC(C)(C)C2 [62 A and B] |  |  |  |  |  |  |  |  | 5.00 to 6.00 | 5.00 to 6.00 | < 5.00 | 5.00 to 6.00 | 5.00 to 6.00 | 5.00 to 6.00 | 5.00 to 6.00 | 5.00 to 6.00
CCn1c(-c2cnccc2COC)c2c3cc(ccc31)-c1cccc(c1)C[C@H](NC(=O)[C@H](C(C)C)N(C)C(=O)CC(C)(C)N=C=Nc1ccc(OC)cc1)C(=O)N1CCC[C@H](N1)C(=O)OCC(C)(C)C2 [64 A and B] |  |  |  |  |  |  |  |  | < 5.00 | < 5.00 | < 5.00 | < 5.00 | < 5.00 | < 5.00 | < 5.00 | < 5.00
CCn1c(-c2cnccc2COC)c2c3cc(ccc31)-c1cc(O)cc(c1)C[C@H](NC(=O)[C@H](C(C)C)N(C)C(=O)CN(C)C(=O)[C@H]1[C@@H](C(=O)OC)N1[S@+]([O-])C(C)(C)C)C(=O)N1CCC[C@H](N1)C(=O)OCC(C)(C)C2 (stereo partly shown) [Example 48] |  |  |  |  |  |  |  |  | 6.00 to 7.00 | 7.00 to 8.00 | 7.00 to 8.00 | 7.00 to 8.00 | 6.00 to 7.00 | 6.00 to 7.00 | 7.00 to 8.00 | 7.00 to 8.00
CCn1c(-c2cccnc2[C@H](C)OC)c2c3cc(ccc31)-c1cc(O)cc(c1)C[C@H](NC(=O)[C@H](C(C)C)N1CCC3(CCN(C(=O)[C@H]4CN4)C3)C1=O)C(=O)N1CCC[C@H](N1)C(=O)OCC(C)(C)C2 (stereo partly shown) [Example 59] |  |  |  |  |  |  |  |  | 7.00 to 8.00 | 7.00 to 8.00 | 7.00 to 8.00 | 7.00 to 8.00 | 6.00 to 7.00 | 7.00 to 8.00 | > 8.00 | 7.00 to 8.00
CCn1c(-c2cccnc2[C@H](C)OC)c2c3cc(ccc31)-c1cccc(c1)C[C@H](NC(=O)[C@H](C(C)C)N(C)C(=O)CCN=C=NCc1ccccc1OC)C(=O)N1CCC[C@H](N1)C(=O)OCC(C)(C)C2 [Example 73] |  |  |  |  |  |  |  |  | 6.00 to 7.00 | 5.00 to 6.00 | < 5.00 | 5.00 to 6.00 | 5.00 to 6.00 | 5.00 to 6.00 | 7.00 to 8.00 | 7.00 to 8.00
